Experimental data: patent US6794372B2, “Nitrate salts of antimicrobial agents” (Nicox S.A., priority 2000, dated 2004)

Experiments:
[1] = test system: Staphylococcus Aureus (ATCC29213); experiment: Dilution test in vitro on medium for antibacterial agents, strain S. Aureus; format: cell-based; settings: CAMH broth, 5×10^5 CFU/ml, 35° C. for 20 hr, read with the naked eye
Text: (§1) Dilution Test in vitro on Medium for Antibacterial Agents
(§2) Such activity has been determined by using the dilution method in vitro on culture medium as described by Sahm et al. (S. D. Sahm, J. A. Washington “Antibacterial susceptibility tests: dilution methods” in: Manual of Clinical Microbiology, ed. A. Balows, W. J. Hausler, Jr, K. L. Hermann, H. D. Isenberg, H. J. Shadomy, 1991, American Society for Microbiology). According to this method a concentration in aqueous solution of substance having antimicrobial activity able to inhibit the growth of some bacterial strains is determined. For the precursor the maximum concentration of the substance at which the microbial growth is still observed under the adopted experimental conditions is selected and the same concentration is used for the corresponding nitrate salt. The solvents and the necessary dilutions for preparing the strain substances of the antibiotics to be tested are prepared according to procedures standard and well known to the person skilled in the field (National Committee for Clinical Laboratory Standards, 1990 “Methods for dilution antimicrobial susceptibility tests for bacteria that grow aerobically. Approved standard M7-A2. National Committee for Clinical Laboratory Standards, Villanova, Pa.). Also the preparation of the culture medium is carried out according to standard procedures and the CAMH broth is used (Cation-adjusted Mueller-Hinton broth) (National Committee for Clinical Laboratory Standards, 1990, Methods for dilution antimicrobial susceptibility tests for bacteria that grow aerobically. Approved standard M7-A2. National Committee for Clinical Laboratory Standards, Villanova, Pa.).
(§3) The inoculation procedure is carried out according to standard procedures and the final concentration of the inocolum is of 5×10^5 CFU (colony forming unit)/ml. The used microorganisms have been Escherichia Coli (ATCC25922) and Staphylococcus Aureus (ATCC29213).
(§4) The test tubes are incubated at 35° C. for 20 hr before reading. The microbial growth, or the absence of the same, is determined in a qualitative way, with the naked eye and it indicates the microbial resistance or, respectively, the sensitivity to the antimicrobial agent.

[2] = test system: Escherichia Coli (ATCC25922); experiment: Dilution test in vitro on medium for antibacterial agents, strain E. Coli; format: cell-based; settings: CAMH broth, 5×10^5 CFU/ml, 35° C. for 20 hr, read with the naked eye
Text: as §1
The capability to antagonize the arising of the microbial resistance of the nitrate salts of the antimicrobial compounds in comparison with that of the respective precursors has been evaluated.
as §2, §3, §4

COc1cc(Cc2cnc(N)nc2N)cc(OC)c1OC.O=[N+]([O-])O [Trimethoprim.HNO3, Trimethoprim nitrate salt]
RESPONSE (microbial growth) ([1]; concentration 0.5 μg/ml): No growth

CC[C@H]1OC(=O)[C@H](C)[C@@H](O[C@H]2C[C@@](C)(OC)[C@@H](O)[C@H](C)O2)[C@H](C)[C@@H](O[C@@H]2O[C@H](C)C[C@H](N(C)C)[C@H]2O)[C@](C)(O)C[C@@H](C)C(=O)[C@H](C)[C@@H](O)[C@]1(C)O [Erythromycin]
RESPONSE (microbial growth) ([1]; concentration 0.06 μg/ml): Growth

COc1cc(Cc2cnc(N)nc2N)cc(OC)c1OC [Trimethoprim]
RESPONSE (microbial growth) ([1]; concentration 0.5 μg/ml): Growth

CC[C@H]1OC(=O)[C@H](C)[C@@H](O[C@H]2C[C@@](C)(OC)[C@@H](O)[C@H](C)O2)[C@H](C)[C@@H](O[C@@H]2O[C@H](C)C[C@H](N(C)C)[C@H]2O)[C@](C)(O)C[C@@H](C)C(=O)[C@H](C)[C@@H](O)[C@]1(C)O.O=[N+]([O-])O [Erythromycin.HNO3, Erythromycin nitrate salt]
RESPONSE (microbial growth) ([1]; concentration 0.06 μg/ml): No growth

CC1(C)S[C@@H]2[C@H](NC(=O)[C@H](N)c3ccccc3)C(=O)N2[C@H]1C(=O)O [Ampicillin]
RESPONSE (microbial growth) ([2]; concentration 1.0 μg/ml): Growth

Cc1nnc(SCC2=C(C(=O)O)N3C(=O)[C@@H](NC(=O)Cn4cnnn4)[C@H]3SC2)s1 [Cefazolin]
RESPONSE (microbial growth) ([2]; concentration 0.5 μg/ml): Growth

CCC[C@@H]1C[C@@H](C(=O)N[C@@H]([C@H]2O[C@H](SC)[C@H](O)[C@@H](O)[C@H]2O)[C@H](C)Cl)N(C)C1 [Clindamycin]
RESPONSE (microbial growth) ([1]; concentration 0.03 μg/ml): Growth

Cc1cc(NS(=O)(=O)c2ccc(N)cc2)no1.O=[N+]([O-])O [Sulfamethoxazole.HNO3, Sulfamethoxazole nitrate salt]
RESPONSE (microbial growth) ([1]; concentration 20 μg/ml): No growth

CC1(C)S[C@@H]2[C@H](NC(=O)[C@H](N)c3ccccc3)C(=O)N2[C@H]1C(=O)O.O=[N+]([O-])O [Ampicillin.HNO3, Ampicillin nitrate salt]
RESPONSE (microbial growth) ([2]; concentration 1.0 μg/ml): No growth

Cc1nnc(SCC2=C(C(=O)O)N3C(=O)[C@@H](NC(=O)Cn4cnnn4)[C@H]3SC2)s1.O=[N+]([O-])O [Cefazolin.HNO3, Cefazolin nitrate salt]
RESPONSE (microbial growth) ([2]; concentration 0.5 μg/ml): No growth

O=C(O)c1cn(C2CC2)c2cc(N3CCNCC3)c(F)cc2c1=O [Ciprofloxacin]
RESPONSE (microbial growth) ([1]; concentration 0.05 μg/ml): Growth

Cc1cc(NS(=O)(=O)c2ccc(N)cc2)no1 [Sulfamethoxazole]
RESPONSE (microbial growth) ([1]; concentration 20 μg/ml): Growth

CCCC1CC(C(=O)NC(C(C)Cl)C2OC(SC)C(O)C(O)C2O)N(C)C1.O=[N+]([O-])O (centres unmarked) [Clindamycin.HNO3, Clindamycin nitrate salt]
RESPONSE (microbial growth) ([1]; concentration 0.03 μg/ml): No growth

O=C(O)c1cn(C2CC2)c2cc(N3CCNCC3)c(F)cc2c1=O.O=[N+]([O-])O [Ciprofloxacin.HNO3, Ciprofloxacin nitrate salt]
RESPONSE (microbial growth) ([1]; concentration 1.0 μg/ml): No growth
